Among the test systems are HOP-62 NSCLC; M14 melanoma; SK-MEL-28 melanoma; NCI-H226 lung; SF-268 CNS; 786-0 renal; SNB-19 CNS; U251 CNS.
Holding throughout (test): NCI tumour cell line growth inhibition, 48 h

In PubChem BioAssay (NCI) one finds GI50 and TGI data, which are given here for 11 compounds.

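1) Cells in 96-well plates. 2) Compound, 48 h, 5 concentrations. 3) Linear interpolation between surrounding doses. 4) Unreached endpoint = highest concentration. GI50 is the concentration that inhibits growth by half. TGI denotes the concentration required for complete inhibition of growth.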 A value given as a limit tells only on which side of the number the result lay.

Take `COC(=O)c1cc2c(cc1Cl)SC(N(N(C)C)S(=O)(=O)c1ccc(Br)s1)=NS2(=O)=O`: the GI50 with HOP-62 NSCLC was 31.1 µM; in the assay with M14 melanoma, 23.2 µM; in the assay with SK-MEL-28 melanoma, 17.8 µM; in the assay on NCI-H226 lung, 52.1 µM; in the assay on SF-268 CNS, 27.4 µM; with 786-0 renal, 35.1 µM. For the same compound, the GI50 was 21.2 µM in the assay with SNB-19 CNS and 30.2 µM with U251 CNS. Moreover, the TGI in the assay on HOP-62 NSCLC is greater than 100 µM; with M14 melanoma, 49.2 µM; with SK-MEL-28 melanoma, 35.3 µM; in the assay with NCI-H226 lung, greater than 100 µM; with SF-268 CNS, 67.3 µM; in the assay on 786-0 renal it was greater than 100 µM. Moreover, the TGI in the assay on SNB-19 CNS worked out at 58.4 µM; in the assay with U251 CNS, 88.2 µM.
In the case of `Cc1ccccc1NC(=O)N/C(N)=N/c1nc(-c2cccc([N+](=O)[O-])c2)cs1`, the GI50 was 1.92 µM with HOP-62 NSCLC; 2.15 µM in the assay on M14 melanoma; 2.55 µM with SK-MEL-28 melanoma; 2.17 µM in the assay with NCI-H226 lung; 2.67 µM in the assay on SF-268 CNS; 2.21 µM in the assay on 786-0 renal. In addition, the GI50 in the assay with SNB-19 CNS was 3.29 µM; with U251 CNS, 2.76 µM. For the same compound, the TGI in the assay on HOP-62 NSCLC is 7.47 µM; in the assay with M14 melanoma it was 19.6 µM; in the assay on SK-MEL-28 melanoma, greater than 100 µM; in the assay on NCI-H226 lung, 7.02 µM; in the assay with SF-268 CNS, 8.88 µM; in the assay on 786-0 renal it was 4.55 µM. In addition, the TGI was 15.8 µM with SNB-19 CNS and 10.5 µM in the assay with U251 CNS.
Take `NOCC(=O)O`: the GI50 in the assay with HOP-62 NSCLC was greater than 100 µM; in the assay with M14 melanoma, 82.8 µM; with SK-MEL-28 melanoma it was greater than 100 µM; in the assay on NCI-H226 lung, greater than 100 µM; in the assay with SF-268 CNS, greater than 100 µM; in the assay on 786-0 renal, greater than 100 µM. Also, the GI50 with SNB-19 CNS and in the assay with U251 CNS was greater than 100 µM each time. Moreover, the TGI in the assay on HOP-62 NSCLC, in the assay on M14 melanoma, with SK-MEL-28 melanoma, in the assay with NCI-H226 lung, in the assay on SF-268 CNS and with 786-0 renal was greater than 100 µM in each case. The TGI in the assay on SNB-19 CNS and with U251 CNS was greater than 100 µM in each case.
Regarding `CC(C)(C#N)c1cc(Cn2cncn2)cc(C(C)(C)C#N)c1`, the GI50 with HOP-62 NSCLC is 921 µM; with SK-MEL-28 melanoma, greater than 10000 µM; in the assay with NCI-H226 lung it was 718 µM; in the assay with SF-268 CNS, greater than 10000 µM; in the assay on 786-0 renal, 892 µM; in the assay with SNB-19 CNS, greater than 10000 µM. The GI50 with U251 CNS is greater than 10000 µM. For the same compound, the TGI in the assay with HOP-62 NSCLC, in the assay on SK-MEL-28 melanoma, in the assay on NCI-H226 lung, in the assay with SF-268 CNS, with 786-0 renal and in the assay on SNB-19 CNS was greater than 10000 µM throughout. In addition, the TGI with U251 CNS was greater than 10000 µM.
As to `O=C1Nc2ccc(C(=O)c3ccco3)cc2/C1=C/c1cc(Cl)c(O)c(Cl)c1`, the GI50 with HOP-62 NSCLC is 7.45 µM; with M14 melanoma, 1.45 µM; in the assay with SK-MEL-28 melanoma it was 4.17 µM; in the assay on NCI-H226 lung it was 6.98 µM; with SF-268 CNS, 5.94 µM; with 786-0 renal, 4.29 µM. The GI50 in the assay with SNB-19 CNS is 8.52 µM; in the assay with U251 CNS, 3.95 µM. For the same compound, the TGI is greater than 22.1 µM in the assay with HOP-62 NSCLC; 13.3 µM in the assay with M14 melanoma; greater than 18.1 µM in the assay with SK-MEL-28 melanoma; greater than 24.1 µM with NCI-H226 lung; greater than 25 µM with SF-268 CNS; 11.6 µM with 786-0 renal. Besides, the TGI in the assay on SNB-19 CNS and in the assay with U251 CNS was greater than 25 µM throughout.
As for `CCN(CC)CCC(=O)NC1c2ccc(Cl)cc2Oc2c(C)cccc21` (centres undefined), the TGI was 31.3 µM in the assay with M14 melanoma; 27.9 µM in the assay with SK-MEL-28 melanoma; 38.9 µM with SF-268 CNS; 25.2 µM with 786-0 renal; 27.1 µM in the assay with SNB-19 CNS.
`CC1(C)C2CCC3=C(CCC4(C)C5C[C@](C)(C(=O)O)CC[C@]5(C)CC[C@]34C)[C@@]2(C)CC[C@@H]1O` (some centres undefined): the TGI is 31.3 µM with HOP-62 NSCLC; 31.8 µM in the assay on M14 melanoma; 33.7 µM in the assay with SK-MEL-28 melanoma; 67.9 µM in the assay with NCI-H226 lung; greater than 100 µM with SF-268 CNS; 29.3 µM with 786-0 renal. In the assay with U251 CNS, this compound returned a TGI of 27.1 µM.
Take `O=C(/C=C/c1ccc(F)cc1)c1ccc(Cl)cc1Cl`: the GI50 in the assay on HOP-62 NSCLC is greater than 100 µM; in the assay with M14 melanoma, greater than 100 µM; in the assay with NCI-H226 lung, greater than 100 µM; with SF-268 CNS it was 74.5 µM; in the assay on 786-0 renal, 45.2 µM; in the assay on SNB-19 CNS it was 23.7 µM. The GI50 with U251 CNS was 44.6 µM. Also, the TGI was greater than 100 µM with HOP-62 NSCLC; greater than 100 µM in the assay with M14 melanoma; greater than 100 µM in the assay on NCI-H226 lung; greater than 100 µM with SF-268 CNS; greater than 100 µM with 786-0 renal; 77.8 µM with SNB-19 CNS. Also, the TGI with U251 CNS is greater than 100 µM.
As for `C=CCC(N[C@H](CO)c1ccccc1)c1ccc2ccccc2n1` (some centres undefined), the GI50 in the assay on HOP-62 NSCLC, with M14 melanoma, with SK-MEL-28 melanoma, in the assay on NCI-H226 lung, in the assay with 786-0 renal and in the assay on U251 CNS was greater than 100 µM throughout. The TGI in the assay with HOP-62 NSCLC, in the assay with M14 melanoma, in the assay on SK-MEL-28 melanoma, in the assay with NCI-H226 lung, in the assay on 786-0 renal and in the assay with U251 CNS was greater than 100 µM in each case.
Take `COc1cc(/C=C/C(=O)CC(=O)/C=C/c2cc(OC)c(OC)c(OC)c2)cc(OC)c1OC`: the GI50 in the assay with HOP-62 NSCLC was 4.45 µM; in the assay with M14 melanoma it was 3.9 µM; in the assay on SK-MEL-28 melanoma, 4.24 µM; in the assay on NCI-H226 lung, 10.2 µM; with SF-268 CNS, 8.23 µM; in the assay on 786-0 renal, 4.05 µM. Besides, in the assay with SNB-19 CNS, the GI50 is 4.36 µM. The TGI with HOP-62 NSCLC is 27.7 µM; in the assay with M14 melanoma it was 40 µM; with SK-MEL-28 melanoma, 32.8 µM; in the assay on NCI-H226 lung it was greater than 100 µM; in the assay on SF-268 CNS, greater than 100 µM; in the assay on 786-0 renal it was 17.6 µM. In the assay with SNB-19 CNS, the TGI was greater than 100 µM.
Take `CC(O)c1cccc(NCc2c3ccccc3c(=O)n3c2oc2ccccc23)c1` (centres undefined): the GI50 in the assay with HOP-62 NSCLC was 3.01 µM; with M14 melanoma it was 4.5 µM; in the assay on SK-MEL-28 melanoma, 6 µM; in the assay on SF-268 CNS, greater than 100 µM; in the assay on 786-0 renal, 4.18 µM; in the assay with SNB-19 CNS it was 16.4 µM. In the assay on U251 CNS, the GI50 is 9.92 µM. In addition, the TGI is 13.6 µM with HOP-62 NSCLC; 25.2 µM in the assay with M14 melanoma; 35.6 µM with SK-MEL-28 melanoma; greater than 100 µM with SF-268 CNS; 19.2 µM in the assay on 786-0 renal; 88.3 µM in the assay with SNB-19 CNS. Also, the TGI in the assay on U251 CNS turned out to be 21.5 µM.
